Results from publication PMC6768323, “Adverse Maternal, Fetal, and Postnatal Effects of Hexafluoropropylene Oxide Dimer Acid (GenX) from Oral Gestational Exposure in Sprague-Dawley Rats” (Environmental Health Perspectives, 2019).

Key:
fetal testis = experiment: Ex vivo fetal testis testosterone production; format: in vivo, Sprague-Dawley rats; settings: any dose
Experimental: For the first two blocks, spanning the full dose range, late gestation (GD18) dams were euthanized by decapitation at ∼2h after the final oral dose [ ∼0830–1000 hours Eastern Standard Time (EST)]. Trunk blood was collected and serum isolated via centrifugation ( 10,000×g for 15 min at 4°C) in vacutainer tubes, transferred to 1.5-mL microcentrifuge tubes and stored at −80°C . Dam liver weight was recorded and a sample of liver tissue was collected into a polypropylene microcentrifuge tube containing 500μL TRIzol Reagent (Invitrogen) on ice. Fetuses were removed and two randomly selected fetuses per litter were weighed. […] Ex vivo fetal testis testosterone production was measured as previously reported ([Wilson et al. 2004b]) except the radioimmunoassay (RIA) utilized here was supplied by ALPCO (Catalog No. 72-TESTO-CT2, ALPCO). […]
Fetal testis testosterone production was normalized to the mean control concentration within a given block and analyzed as percentage of control values across blocks. Maternal liver weight was analyzed using body weight as a covariate within PROC GLM followed by pairwise comparison using LSMEANS, this analysis produces linear regressions of body weight versus liver weight for each dose group. […]

CV-1 cells = experiment: MTT cytotoxicity; format: cell-based
Experimental: HFPO-DA was assessed for agonism and antagonism of transcriptional activation for estrogen (ER), androgen (AR), and glucocorticoid receptors (GR). Method details for in vitro transactivation assays for ER ([Wilson et al. 2004a]), AR ([Hartig et al. 2002], [2007]), and GR ([Conley et al. 2017]; [Medlock Kakaley et al. 2018]) have been previously reported. Briefly, for ER activity we utilized the stably transfected T47D-KBluc cell line [publicly available via American Type Culture Collection (ATCC); CRL-2865] according to protocols provided by ATCC with the modification of Dulbecco’s Modified Eagle Media (DMEM) as the cell culture media instead of Roswell Park Memorial Institute (RPMI) media. […] All assays were run in 96-well plates and luminescence was detected using a BMG Fluostar Omega luminometer (BMG Labtech) following 24-h exposure. […] Cellular cytotoxicity across the dosing range was determined for CV-1 cells utilizing the 3-(4,5-dimethylthiazol-2-yl)-2,5-diphenyltetrazolium bromide (MTT) dye ([Mosmann 1983]). HFPO-DA was analyzed using n=2–3 biological replicate assay plates (i.e., unique cell passages) with four technical replicates per treatment per plate.

Sprague-Dawley rats = settings: cited from earlier work

## O=C(O)C(F)(OC(F)(F)C(F)(F)C(F)(F)F)C(F)(F)F (stereo not drawn) [HFPO-DA, Hexafluoropropylene oxide dimer acid]
Fetal testis
  fetal testis testosterone production versus controls: not significantly different from controls at any dose
CV-1 cells
  cytotoxic dose: 300 µM
Sprague-Dawley rats; ref Caverly Rae et al. 2015
  NOAEL: 1 mg/kg per day
  upper dose tolerated in the rat: 500 mg/kg per day
Sprague-Dawley rats; ref DuPont 2010
  NOAEL, prenatal developmental toxicity study: 10 mg/kg per day
  dose overtly toxic to the dam: 1,000 mg/kg per day
